Read-outs that look alike come from different tables or passages of the source. One block for each compound: values may come before it.
Target: T1, Androgen Receptor (Homo sapiens, UniProt P10275)
T1 construct: endogenous in cells; host or cells: VCaP cells
T1 sequence (P10275 1-920): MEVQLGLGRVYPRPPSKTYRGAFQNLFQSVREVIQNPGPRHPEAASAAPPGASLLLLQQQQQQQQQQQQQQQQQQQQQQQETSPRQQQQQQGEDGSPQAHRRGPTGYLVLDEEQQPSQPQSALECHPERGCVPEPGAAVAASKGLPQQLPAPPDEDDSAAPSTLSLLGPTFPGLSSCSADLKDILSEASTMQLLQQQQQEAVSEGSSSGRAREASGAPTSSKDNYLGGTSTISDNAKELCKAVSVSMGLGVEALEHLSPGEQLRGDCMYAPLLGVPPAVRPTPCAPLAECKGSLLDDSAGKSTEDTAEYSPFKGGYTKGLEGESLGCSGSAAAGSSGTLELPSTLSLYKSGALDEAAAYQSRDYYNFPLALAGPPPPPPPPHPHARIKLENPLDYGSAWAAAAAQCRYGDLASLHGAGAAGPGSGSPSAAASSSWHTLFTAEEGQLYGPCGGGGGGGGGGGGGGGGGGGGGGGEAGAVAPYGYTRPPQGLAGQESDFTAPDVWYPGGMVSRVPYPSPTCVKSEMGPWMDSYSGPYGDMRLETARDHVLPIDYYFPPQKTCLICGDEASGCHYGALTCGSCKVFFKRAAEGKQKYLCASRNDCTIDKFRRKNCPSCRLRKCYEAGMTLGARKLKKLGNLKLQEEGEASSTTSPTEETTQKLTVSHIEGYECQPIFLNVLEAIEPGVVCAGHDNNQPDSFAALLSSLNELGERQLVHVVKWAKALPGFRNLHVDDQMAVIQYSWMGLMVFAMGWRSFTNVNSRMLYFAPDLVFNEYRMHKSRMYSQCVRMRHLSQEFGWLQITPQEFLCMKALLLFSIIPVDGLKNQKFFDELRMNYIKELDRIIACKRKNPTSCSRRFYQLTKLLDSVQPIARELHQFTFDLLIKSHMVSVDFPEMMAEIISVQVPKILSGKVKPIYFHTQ
Assay: Androgen Receptor ELISA assay (PathScan AR ELISA) in VCaP cells: AR degradation, Dmax and DC50
Format: cell-based
Method in brief: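 VCaP cells in phenol red-free RPMI with 5% charcoal-stripped FBS were grown at least 3 days, then given compound as 7 half-log doses in 0.1% DMSO with 0.1 nM R1881 for 24 h. Lysates went into a sandwich AR ELISA with TMB read at 450 nm.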

[1] = VCaP cells; Table 36; read-out: VCaP DC50
[2] = VCaP, VCaP cells; Table 36; read-out: VCaP Dmax (%)
[3] = VCaP cells; Table 34; read-out: VCaP DC50
[4] = VCaP, VCaP cells; Table 34; read-out: VCaP Dmax (%)

DC50 [1]: < 50 nM
Dmax [2]: 51 to 70%
Compound: Cc1ncsc1-c1ccc([C@H](C)NC(=O)[C@@H]2C[C@@H](O)CN2C(=O)[C@@H](C(C)C)n2cc(-c3ccnc(OC4CN(c5ccc(C(=O)N[C@H]6C(C)(C)[C@H](Oc7ccc(C#N)c(Cl)c7)C6(C)C)cn5)C4)c3)cn2)cc1 [Example 595, N-((1r,3r)-3-(3-chloro-4-cyanophenoxy)-2,2,4,4-tetramethylcyclobutyl)-6-(3-((4-(1-((R)-1-((2S,4R)-4-hydroxy-2-(((S)-1-(4-(4-methylthiazol-5-yl)phenyl)ethyl)carbam-oyl)pyrrolidin-1-yl)-3-methyl-1-oxobutan-2-yl)-1H-pyrazol-4-yl)pyridin-2-yl)oxy)azetidin-1-yl)nicotinamide]

Compound: Cc1ncsc1-c1ccc([C@H](CO)NC(=O)[C@@H]2C[C@@H](O)CN2C(=O)[C@@H](NC(=O)CN2CCC(CN3CCN(c4ccc(C(=O)N[C@H]5C(C)(C)[C@H](Oc6ccc(C#N)c(Cl)c6)C5(C)C)cn4)CC3)CC2)C(C)(C)C)cc1 [Example 847, N-((1r,3r)-3-(3-chloro-4-cyanophenoxy)-2,2,4,4-tetramethylcyclobutyl)-6-(4-((1-(2-(((S)-1-((2S,4R)-4-hydroxy-2-(((R)-2-hydroxy-1-(4-(4-methylthiazol-5-yl)phenyl)ethyl)carbamoyl)pyrrolidin-1-yl)-3,3-dimethyl-1-oxobutan-2-yl)amino)-2-oxoethyl)piperidin-4-yl)methyl)piperazin-1-yl)nicotinamide]
DC50 [1]: < 50 nM
Dmax (VCaP, read-out: VCaP Dmax (%)): > 71%

Compound: Cc1ncoc1-c1ccc(CNC(=O)[C@@H]2C[C@@H](O)CN2C(=O)[C@@H](NC(=O)COCCCCOc2ccc(-c3ccc(N4C(=S)N(c5ccc(C#N)c(C(F)(F)F)c5)C(=O)C4(C)C)c(F)c3)cc2)C(C)(C)C)cc1 [Example 116, (2S,4R)-1-[(2S)-2-(2-{4-[4-(4-{3-[4-cyano-3-(trifluoromethyl)phenyl]-5,5-dimethyl-4-oxo-2-sulfanylideneimidazolidin-1-yl}-3-fluorophenyl)phen-oxy]butoxy}acetamido)-3,3-dimethylbutanoyl]-4-hydroxy-N-{[4-(4-methyl-1,3-oxazol-5-yl)phenyl]methyl}pyrrolidine-2-carboxamide]
Dmax (VCaP, read-out: VCaP Dmax (%)): > 71%
DC50 (read-out: VCaP DC50; concentration that caused 50% Androgen Receptor degradation, VCaP cells (Table 32)): < 50 nM

DC50 [1]: > 501 nM
Dmax [2]: 26 to 50%
Compound: Cc1nc(-c2ccn(C[C@H](C)NC(=O)c3cc(COCCCN4CCN(CC(=O)N[C@H](C(=O)N5C[C@H](O)C[C@H]5C(=O)N[C@@H](C)c5ccc(-c6scnc6C)cc5)C(C)(C)C)CC4)[nH]n3)n2)ccc1C#N [Example 767, N-((S)-1-(3-(5-cyano-6-methylpyridin-2-yl)-1H-pyrazol-1-yl)propan-2-yl)-5-((3-(4-(2-(((S)-1-((2S,4R)-4-hydroxy-2-(((S)-1-(4-(4-methylthiazol-5-yl)phenyl)ethyl)carbam-oyl)pyrrolidin-1-yl)-3,3-dimethyl-1-oxobutan-2-yl)amino)-2-oxoethyl)piperazin-1-yl)propoxy)methyl)-1H-pyrazole-3-carboxamide]

DC50 [3]: < 50 nM
Dmax [4]: > 71%
Compound: Cc1ncoc1-c1ccc(CNC(=O)[C@@H]2C[C@@H](O)CN2C(=O)[C@@H](NC(=O)COCCCCOc2ccc(Oc3ccc(N4C(=S)N(c5cnc(C#N)c(C(F)(F)F)c5)C(=O)C4(C)C)cc3)cc2)C(C)(C)C)cc1 [Example 383]

DC50 (VCaP cells; Table 35; read-out: VCaP DC50): < 50 nM
Dmax (VCaP, VCaP cells; Table 35; read-out: VCaP Dmax (%)): 26 to 50%
Compound: CC(C)(C)[C@H](NC(=O)COCCCCCNc1ccc(C(=O)N[C@H]2C(C)(C)[C@H](Oc3ccc(C#N)c(Cl)c3)C2(C)C)cc1)C(=O)N1C[C@H](O)C[C@H]1C(=O)NCc1ccc(-c2ccccn2)cc1 [Example 536]

Dmax (VCaP, highest percentage of Androgen Receptor degradation observed, VCaP cells (Table 32); read-out: VCaP Dmax (%)): > 71%
DC50 (concentration that caused 50% Androgen Receptor degradation, VCaP cells (Table 32); read-out: VCaP DC50): < 50 nM
Compound: Cc1ncsc1-c1ccc(CNC(=O)[C@@H]2C[C@@H](O)CN2C(=O)[C@@H](NC(=O)CO[C@H](C)CCCCOc2ccc(C(=O)N[C@H]3C(C)(C)[C@H](Oc4ccc(C#N)c(Cl)c4)C3(C)C)cc2)C(C)(C)C)cc1 [Example 158, (2S,4R)-1-[(2S)-3,3-dimethyl-2-(2-{[(2R)-6-(4-{[trans-3-(3-chloro-4-cyanophenoxy)-2,2,4,4-tetramethylcyclobutyl]carbamoyl}phen-oxy)hexan-2-yl]oxy}acetamido)butanoyl]-4-hydroxy-N-{[4-(4-methyl-1,3-thiazol-5-yl)phenyl]methyl}pyrrolidine-2-carboxamide]

DC50 [1]: < 50 nM
Dmax (VCaP, read-out: VCaP Dmax (%), VCaP cells; Table 36): 26 to 50%
Compound: Cc1ncsc1-c1ccc([C@H](C)NC(=O)[C@@H]2C[C@@H](O)CN2C(=O)[C@@H](NC(=O)COCCN(CCCc2ccc(C(=O)N[C@H]3C(C)(C)[C@H](Oc4ccc(C#N)c(Cl)c4)C3(C)C)nc2)CCC(F)(F)F)C(C)(C)C)cc1 [Example 699, N-((1r,3r)-3-(3-chloro-4-cyanophenoxy)-2,2,4,4-tetramethylcyclobutyl)-5-(3-((2-(2-(((S)-1-((2S,4R)-4-hydroxy-2-(((S)-1-(4-(4-methylthiazol-5-yl)phenyl)ethyl)carbam-oyl)pyrrolidin-1-yl)-3,3-dimethyl-1-oxobutan-2-yl)amino)-2-oxoethoxy)ethyl)(3,3,3-trifluoropropyl)amino)propyl)picolinamide]

Compound: Cc1ncsc1-c1ccc([C@H](C)NC(=O)[C@@H]2C[C@@H](O)CN2C(=O)[C@H](C(C)C)n2cc(OCCCOCCCn3cnc(-c4ccc(N5C(=S)N(c6ccc(C#N)c(C(F)(F)F)c6)C(=O)C5(C)C)cc4)c3)cn2)cc1 [Example 648, (2S,4R)-1-((S)-2-(4-(3-(3-(4-(4-(3-(4-cyano-3-(trifluoromethyl)phenyl)-5,5-dimethyl-4-oxo-2-thioxoimidazolidin-1-yl)phenyl)-1H-imidazol-1-yl)propoxy)propoxy)-1H-pyrazol-1-yl)-3-methylbutanoyl)-4-hydroxy-N-((S)-1-(4-(4-methylthiazol-5-yl)phenyl)ethyl)pyrrolidine-2-carboxamide]
Dmax (VCaP, read-out: VCaP Dmax (%)): < 25%
DC50 (read-out: VCaP DC50; VCaP cells; Table 36): > 501 nM

DC50 [1]: > 501 nM
Dmax [2]: < 25%
Compound: Cc1ncsc1-c1ccc([C@H](C)NC(=O)[C@@H]2C[C@@H](O)CN2C(=O)[C@@H](NC(=O)OC(C)(C)C)[C@@H](C)OCCCN(C)CCc2ccc(C(=O)N[C@H]3C(C)(C)[C@H](Oc4ccc(C#N)c(Cl)c4)C3(C)C)cc2)cc1 [Example 729, tert-butyl ((2S,3R)-3-(3-((4-(((1r,3r)-3-(3-chloro-4-cyanophenoxy)-2,2,4,4-tetramethylcyclobutyl)carbamoyl)phenethyl)(meth-yl)amino)propoxy)-1-((2S,4R)-4-hydroxy-2-(((S)-1-(4-(4-methylthiazol-5-yl)phenyl)ethyl)carbam-oyl)pyrrolidin-1-yl)-1-oxobutan-2-yl)carbamate]

Compound: CC(C)(C)[C@H](NC(=O)COCCCOCCCCOc1ccc(N2C(=S)N(c3ccc(C#N)c(C(F)(F)F)c3)C(=O)C2(C)C)cc1)C(=O)N1C[C@H](O)C[C@H]1C(=O)NCc1ccc(-c2cnco2)cc1 [Example 34, (2S,4R)-1-[(2S)-2-(2-{3-[4-(4-{3-[4-cyano-3-(trifluoromethyl)phenyl]-5,5-dimethyl-4-oxo-2-sulfanylideneimidazolidin-1-yl}phenoxy)butoxy]propoxy}acetamido)-3,3-dimethylbutanoyl]-4-hydroxy-N-{[4-(l,3-oxazol-5-yl)phenyl]methyl}pyrrolidine-2-carboxamide]
Dmax (VCaP, read-out: VCaP Dmax (%)): > 71%
DC50 (read-out: VCaP DC50; concentration that caused 50% Androgen Receptor degradation, VCaP cells): < 50 nM

Compound: CC(C)(C)[C@H](NC(=O)COCCCOCCCCOc1ccc(N2C(=S)N(c3cc(Cl)c(C#N)cc3F)C(=O)C2(C)C)cc1)C(=O)N1C[C@H](O)C[C@H]1C(=O)NCc1ccc(-c2cnco2)cc1 [Example 369]
DC50 (read-out: VCaP DC50; VCaP cells; Table 34): < 50 nM

Compound: Cc1ncsc1-c1ccc(CNC(=O)[C@@H]2C[C@@H](O)CN2C(=O)[C@@H](NC(=O)COCC2CCN(c3ccc(-c4ccc(N5C(=S)N(c6ccc(C#N)c(C(F)(F)F)c6)C(=O)C5(C)C)cc4)cn3)CC2)C(C)(C)C)cc1 [Example 420]
Dmax (VCaP, read-out: VCaP Dmax (%)): 51 to 70%
DC50 (read-out: VCaP DC50; VCaP cells; Table 35): 51 to 500 nM

DC50 [3]: < 50 nM
Dmax [4]: 51 to 70%
Compound: Cc1ncoc1-c1ccc([C@H](C)NC(=O)[C@@H]2C[C@@H](O)CN2C(=O)[C@@H](NC(=O)COCCCCNc2ccc(-c3ccc(N4C(=S)N(c5cnc(C#N)c(C(F)(F)F)c5)C(=O)C4(C)C)cc3)cc2)C(C)(C)C)cc1 [Example 390]
